Test results published in ChEMBL document CHEMBL3044807, “Synthesis and biological evaluation of new ozonides with improved plant growth regulatory activity” (2009).

Key:
Assay type in all cases: functional
Sorghum bicolor [1] = test: Phytotoxic activity against Sorghum bicolor seedlings assessed as germination at 5x10'-4 mol/l at 28 +/-1 degC after 48 hr by acid-washed sand based radicle elongation assay (reference value: 100%)
Cucumis sativus [2] = test: Phytotoxic activity against Cucumis sativus (cucumber) assessed as root growth inhibition at 5.0 x 10^-4 mol/l measured 15 days after seed sowing under greenhouse trials (reference value: 0.0%); conditions: 360 h
Cucumis sativus [3] = test: Phytotoxic activity against Cucumis sativus (cucumber) seedlings assessed as inhibition of radicle growth at 5x10'-4 mol/l at 28 +/-1 degC after 48 hr by acid-washed sand based radicle elongation assay (reference value: 0.0%)
Sorghum bicolor [4] = test: Phytotoxic activity against Sorghum bicolor assessed as weight of roots at 5.0 x 10^-4 mol/l measured 15 days after seed sowing under greenhouse trials (reference value: 14.0 mg)
Sorghum bicolor [5] = test: Phytotoxic activity against Sorghum bicolor assessed as root growth inhibition at 5.0 x 10^-4 mol/l measured 15 days after seed sowing under greenhouse trials (reference value: 0.0%); conditions: 360 h
Cucumis sativus [6] = test: Phytotoxic activity against Cucumis sativus (cucumber) assessed as weight of roots at 5.0 x 10^-4 mol/l measured 15 days after seed sowing under greenhouse trials (reference value: 31.0 mg)
Sorghum bicolor [7] = test: Phytotoxic activity against Sorghum bicolor assessed as weight of aerial parts at 5.0 x 10^-4 mol/l measured 15 days after seed sowing under greenhouse trials (reference value: 19.0 mg)
Sorghum bicolor [8] = test: Phytotoxic activity against Sorghum bicolor seedlings assessed as inhibition of radicle growth at 5x10'-4 mol/l at 28 +/-1 degC after 48 hr by acid-washed sand based radicle elongation assay (reference value: 0.0%)
Sorghum bicolor [9] = test: Phytotoxic activity against Sorghum bicolor assessed as aerial part growth inhibition at 5.0 x 10^-4 mol/l measured 15 days after seed sowing under greenhouse trials (reference value: 0.0%); conditions: 360 h
Cucumis sativus [10] = test: Phytotoxic activity against Cucumis sativus (cucumber) assessed as aerial part growth inhibition at 5.0 x 10^-4 mol/l measured 15 days after seed sowing under greenhouse trials (reference value: 0.0%); conditions: 360 h
Cucumis sativus [11] = test: Phytotoxic activity against Cucumis sativus (cucumber) assessed as weight of aerial parts at 5.0 x 10^-4 mol/l measured 15 days after seed sowing under greenhouse trials (reference value: 47.0 mg)
Cucumis sativus [12] = test: Phytotoxic activity against Cucumis sativus (cucumber) seedlings assessed as germination at 5x10'-4 mol/l at 28 +/-1 degC after 48 hr by acid-washed sand based radicle elongation assay (reference value: 100%)
Cucumis sativus [13] = test: Phytotoxic activity against Cucumis sativus (cucumber) seedlings assessed as radicle length at 5x10'-4 mol/l at 28 +/-1 degC after 48 hr by acid-washed sand based radicle elongation assay (reference value: 4.8 cm)
Sorghum bicolor [14] = test: Phytotoxic activity against Sorghum bicolor seedlings assessed as radicle length at 5x10'-4 mol/l at 28 +/-1 degC after 48 hr by acid-washed sand based radicle elongation assay (reference value: 5.1 cm)
Urochloa decumbens [15] = test: Phytotoxic activity against Urochloa decumbens assessed as aerial part growth inhibition at 5.0 x 10^-4 mol/l measured 21 days after seed sowing under greenhouse trials (reference value: 0.0%); conditions: 504 h
Ipomoea grandifolia [16] = test: Phytotoxic activity against Ipomoea grandifolia assessed as weight of aerial parts at 5.0 x 10^-4 mol/l measured 21 days after seed sowing under greenhouse trials (reference value: 17.8 mg)
Ipomoea grandifolia [17] = test: Phytotoxic activity against Ipomoea grandifolia assessed as aerial part growth inhibition at 5.0 x 10^-4 mol/l measured 21 days after seed sowing under greenhouse trials (reference value: 0.0%); conditions: 504 h
Urochloa decumbens [18] = test: Phytotoxic activity against Urochloa decumbens assessed as weight of aerial parts at 5.0 x 10^-4 mol/l measured 21 days after seed sowing under greenhouse trials (reference value: 22.0 mg)
Ipomoea grandifolia [19] = test: Phytotoxic activity against Ipomoea grandifolia assessed as root growth inhibition at 5.0 x 10^-4 mol/l measured 21 days after seed sowing under greenhouse trials (reference value: 0.0%); conditions: 504 h
Urochloa decumbens [20] = test: Phytotoxic activity against Urochloa decumbens assessed as root growth inhibition at 5.0 x 10^-4 mol/l measured 21 days after seed sowing under greenhouse trials (reference value: 0.0%); conditions: 504 h
Ipomoea grandifolia [21] = test: Phytotoxic activity against Ipomoea grandifolia assessed as weight of root at 5.0 x 10^-4 mol/l measured 21 days after seed sowing under greenhouse trials (reference value: 18.4 mg)
Urochloa decumbens [22] = test: Phytotoxic activity against Urochloa decumbens assessed as weight of root at 5.0 x 10^-4 mol/l measured 21 days after seed sowing under greenhouse trials (reference value: 21.2 mg)

Structure (SMILES) | germination % at 500 µM (Sorghum bicolor [1]) [%] | inhibition at 500 µM (Cucumis sativus [2]) [%] | inhibition at 500 µM (Cucumis sativus [3]) [%] | Activity (Sorghum bicolor [4]) [mg] | inhibition at 500 µM (Sorghum bicolor [5]) [%] | Activity (Cucumis sativus [6]) [mg] | Activity (Sorghum bicolor [7]) [mg] | inhibition at 500 µM (Sorghum bicolor [8]) [%] | inhibition at 500 µM (Sorghum bicolor [9]) [%] | inhibition at 500 µM (Cucumis sativus [10]) [%] | Activity (Cucumis sativus [11]) [mg] | germination % at 500 µM (Cucumis sativus [12]) [%] | Activity (Cucumis sativus [13]) [cm] | Activity (Sorghum bicolor [14]) [cm] | other results
C[C@@]12C=C[C@](C)(O1)[C@H]1CCCC[C@H]2C1=O | 100 | 66.2 | 70.7 | 11.9 | 14.8 | 10.5 | 12.7 | 83.4 | 32.9 | 15.6 | 39.7 | 82 | 1.4 | 0.9 | –
CC[C@@]12C=C[C@H](O1)[C@H]1CCCC[C@H]2C1=O | 100 | 49.2 | 73.2 | 7.7 | 49 | 15.8 | 9.7 | 64.2 | 48.8 | 69.2 | 14.5 | 100 | 1.3 | 1.8 | –
CC12OC(C3OOC1O3)C1CCCCC2C1=O (mixture of isomers) | 96 | 65.9 | 52 | 12.7 | 11.8 | 10.6 | 15.4 | 71.5 | 20 | 63.9 | 17 | 70 | 2.3 | 1.5 | –
CC1CCC23OOC(C)(O2)C2OC3(C1)C(C)C(=O)C2C (mixture of isomers) | 96 | 50.8 | 39.9 | 12.7 | 9.1 | 15.3 | 17.7 | 72.1 | 6.8 | 36.9 | 29.7 | 93 | 2.9 | 1.4 | –
CC1=C2CCC(C)C[C@@]23O[C@H]1[C@H](C)C(=O)[C@H]3C (some centres not stated) | 96 | 34.4 | 72.4 | 13.1 | 6.2 | 20.3 | 14 | 71.4 | 26.3 | 5.9 | 44.2 | 96 | 1.3 | 1.5 | –
CCC1C(=O)C(CC)C23CC(C)CCC24OOC(C)(O4)C1O3 (mixture of isomers) | 100 | 6.5 | 55.6 | 13.1 | 6.5 | 29 | 11.5 | 55.1 | 39.6 | 36 | 30.1 | 96 | 2.1 | 2.3 | –
CC1=C[C@@H]2O[C@]1(C)[C@H]1CCCC[C@H]2C1=O | 79 | 62.1 | 82.1 | 7.1 | 49.6 | 11.7 | 10 | 82.5 | 47.4 | 65.4 | 16.3 | 96 | 0.9 | 0.9 | –
CC[C@@H]1C(=O)[C@@H](CC)[C@@]23CC(C)CCC2=C(C)[C@H]1O3 (some centres not stated) | 93 | 79.7 | 62.9 | 12.7 | 9.3 | 6.3 | 13.7 | 68 | 28.1 | 34.6 | 30.7 | 96 | 1.8 | 1.7 | inhibition at 500 µM (Urochloa decumbens [15]): 75.3%; Activity (Ipomoea grandifolia [16]): 6.9 mg; inhibition at 500 µM (Ipomoea grandifolia [17]): 61.8%; Activity (Urochloa decumbens [18]): 5.4 mg; inhibition at 500 µM (Ipomoea grandifolia [19]): 85.3%; inhibition at 500 µM (Urochloa decumbens [20]): 85.5%; Activity (Ipomoea grandifolia [21]): 2.4 mg; Activity (Urochloa decumbens [22]): 3.4 mg
CC12OOC(O1)C1OC2(C)C2CCCCC1C2=O (mixture of isomers) | 100 | 57.4 | 84.2 | 9.2 | 34.6 | 13.2 | 11.1 | 80.2 | 41.8 | 29.9 | 32.9 | 100 | 0.8 | 1 | –
CC(=O)[C@@]12C=C[C@H](O1)[C@H]1CCCC[C@H]2C1=O | 96 | 84.1 | 82.1 | 10.7 | 23.2 | 4.9 | 17.8 | 88.5 | 6 | 57.4 | 20 | 86 | 0.9 | 0.6 | inhibition at 500 µM (Urochloa decumbens [15]): 66.5%; Activity (Ipomoea grandifolia [16]): 10.9 mg; inhibition at 500 µM (Ipomoea grandifolia [17]): 39.4%; Activity (Urochloa decumbens [18]): 7.4 mg; inhibition at 500 µM (Ipomoea grandifolia [19]): 46.2%; inhibition at 500 µM (Urochloa decumbens [20]): 78.4%; Activity (Ipomoea grandifolia [21]): 8.6 mg; Activity (Urochloa decumbens [22]): 4.5 mg
O=C1[C@@H]2CCCC[C@@H]1[C@@H]1C=C[C@@H]2O1 | 93 | 47.3 | 82.2 | 13.1 | 6.2 | 16.5 | 18.1 | 62 | 4.5 | 30.4 | 32.7 | 90 | 0.9 | 1.9 | –
C[C@@H]1CC[C@H]2[C@@H](C)C(=O)O[C@@H]3O[C@@]4(C)CC[C@@H]1[C@]32OO4 [ARTEMISININ] | – | – | – | – | – | – | – | – | – | – | – | – | – | – | inhibition at 500 µM (Urochloa decumbens [15]): 93.6%; Activity (Ipomoea grandifolia [16]): 1.2 mg; inhibition at 500 µM (Ipomoea grandifolia [17]): 93.6%; Activity (Urochloa decumbens [18]): 2.9 mg; inhibition at 500 µM (Ipomoea grandifolia [19]): 95%; inhibition at 500 µM (Urochloa decumbens [20]): 95%; Activity (Ipomoea grandifolia [21]): 0.7 mg; Activity (Urochloa decumbens [22]): 3.1 mg
C[C@@]12C=C[C@H](O1)[C@H]1CCCC[C@H]2C1=O | 99 | 43.1 | 74.7 | 9.7 | 30.7 | 17.6 | 10.9 | 58.9 | 42.6 | 44.6 | 26 | 95 | 1.2 | 2.1 | –
